Laboratory results as given in patent publication US11389449B2, “Treatment of metabolic syndrome with an sGC stimulator” (Cyclerion Therapeutics, Inc., priority 2017, dated 2022).

Experiments:
[1] = system: obese/high fat diet C57Bl/6J mice; experiment: Diet induced obesity (DIO) mouse model: body weight and food intake; type: in vivo; conditions: DIO HFD mice, approx 6 mg/kg in diet
Description: (§1) The objective of this animal study was to evaluate the effects of Compound I in the mouse diet induced obesity (DIO) model. Assessments included body weight, food intake, oral glucose tolerance test (OGTT) and fasting plasma biomarkers of metabolic control.
(§2) Male C57Bl/6J mice with baseline body weights of 25.0-29.0 grams (lean controls) and 31.5-45.0 grams (obese/high fat diet treated) respectively, were used for this study. The lean mice (n=8) were maintained on a standard chow diet. The obese mice were given 60% high fat diet (HFD) starting at 6 weeks of age. All animals were allowed free access to drinking water and chow. The study was begun when the mice were 12 weeks of age and concluded after 4 weeks (16 weeks of age). The obese control group (n=8 mice) was maintained on HFD. The Compound I group (n=8 obese mice) was treated with HFD containing 90 mg Compound I/kg (an approximate dose of 6 mg/kg). Body weights were determined twice weekly and food intake was measured daily for 28 days. An OGTT was performed on each animal at day 28 or 29 and the animals were sacrificed on the following day. On the terminal day, 3 hour fasted blood was collected for compound concentrations and plasma biomarkers analysis including glucose, insulin and triglycerides. Organs were collected, weighed and snap frozen in liquid nitrogen for further analysis.

[2] = system: ZSF1 obese rats; experiment: ZSF1 rat study: serum clinical chemistry (cholesterol, triglycerides), body weight, clinical observations; type: in vivo
Description: (§3) Blood and 24-hour urine samples were obtained from all animals at day 0 (15 weeks of age; prior to the initiation of enalapril treatment). Animals in Groups 3, 7, 8 and 9 were placed on drinking water containing enalapril and kept on Purina 5008 rodent chow (C13000). Animals in Group 1, 2, 4, 5 and 6 were kept on Purina 5008 rodent chow and drinking water. Ten days after the initiation of enalapril treatment, blood and 24-hour urine samples were collected from all animals. After day 10 blood and urine collections, animals in Groups 4, 5 and 6 received Compound I at 1, 3 and 10 mg/kg/day, respectively for 11 weeks. In addition to enalapril treatment, animals in Groups 7, 8 and 9 received Compound I at 1, 3 and 10 mg/kg/day, respectively for an additional 11 weeks.
Body weight and 24-hour water intake were obtained at least once every other week. 24-hour food intake was measured at baseline and week 8.
Plasma (for biomarker) and serum (for clinical chemistry analysis) samples were collected from all treatment groups at baseline, day 10, weeks 5 and 9 prior to placing the animals into the metabolic cages. Plasma samples were obtained from Groups 3-9 for measurement of compound exposure levels at weeks 5 and 11. Terminal plasma and serum samples were obtained at necropsy.
For serum samples, blood was collected in serum separator tubes, maintained at room temperature for at least 30 minutes and then centrifuged at 6000 rpm for 10 minutes. Serum samples were stored at −80° C. until analysis. Urine and serum samples were analyzed using the Randox Daytona Clinical Chemistry Analyzer. All measurements were performed in accordance with manufacturer's instructions.
Animal #8 (in Group 3, ZSF1—enalapril 3 mg/kg/day) was found dead 3 days after the initiation of enalapril treatment.

[3] = system: obese/high fat diet C57Bl/6J mice; experiment: DIO mouse model: oral glucose tolerance test; type: in vivo; conditions: DIO HFD mice, approx 6 mg/kg in diet, week 4
Description: as §1, §2

[4] = system: ZSF1 obese rats; experiment: Oral glucose tolerance test (OGTT) and fasting glucose in ZSF1 rats at week 10; type: in vivo, rat
Method: Male ZSF1 rats (body weight 400-430 grams (lean control) and 500-605 grams (obese) at baseline) were used for this study. All animals were housed in a room under controlled conditions of temperature (72±8° F.), relative humidity of 30-70% and a 12-hour light-dark cycle (lights on at 6:00 AM and off at 6:00 PM) at a fully AAALAC accredited, USDA registered and OLAW assured laboratory animal research facility. All animals were allowed free access to rodent chow (Purina 5008+/−test articles) and water (+/−enalapril).
as §3
10 weeks after the initiation of Compound I treatment, animals (27 weeks of age) were fasted for 18 hours. Serum samples were collected for the measurement of fasting insulin levels. Serum insulin levels were determined using the Rat Insulin ELISA kit (Cat #ELR-Insulin, RayBiotech, Inc.)
For OGTT, animals were given glucose solution (50% Dextrose) at 2 g/kg via oral gavage. Blood samples were collected prior to oral glucose administration (0 minute) and 30, 60, 90, 120 and 180 minutes after administration. Blood glucose levels were measured using a standard blood glucose monitoring system (AlphaTRAK). The blood glucose reading at time 0 (prior to glucose administration) corresponds to the fasting glucose measurement.
The data are expressed as mean±SEM. […] One-tailed tests were used for comparison of variables. Statistical significance is indicated by P values less than 0.05.

[5] = obese ZSF1 rats, 3 and 10 mg/kg, compared to placebo and enalapril, not statistically significant

Structure (SMILES): OC(CNc1nc(-c2cc(-c3ccon3)n(Cc3ccccc3F)n2)ncc1F)(C(F)(F)F)C(F)(F)F [Compound I]
- body weight gain change vs obese controls ([1]; Day 28, P<0.0001): −37%
- increase in food intake vs obese controls ([1]; Day 28, P<0.05): 11%
- cumulative food intake vs obese controls ([1]; days 12-14 and 16-28): Significant increases
- body weight gain vs obese controls ([1]; from 0.5 weeks for the duration of the study): significant reductions
- reduction of weight ([2]; obese ZSF1 rats): No effects were observed
- effect on cholesterol levels [2, 5]: some reduction in cholesterol was observed
- effect on triglyceride levels [2, 5]: some reduction in TGs was observed
- clinical observation ([2]; rat, in vivo, 1 mg/kg/day): enlarged left kidney's filled with brown fluid consistent with hydronephrosis
- Fasting blood glucose [3]: not reduced
- OGTT area above baseline change vs obese controls ([3]; P<0.05): −47%
- OGTT area under the curve change vs obese controls ([3]; P<0.05): −22%
- blood glucose excursion in OGTT vs obese controls ([3]; from 30 to 120 minutes): significant reductions
- Fasting Blood Glucose (0 minute) ([4]; Compound I 1 mpk): 267 ± 38 mg/dL
- OGTT Area Under Curve (AUC) ([4]; Compound I 1 mpk): 84945 ± 5344
- OGTT Blood Glucose 120 minutes ([4]; Compound I 1 mpk): 475 ± 33 mg/dL
- OGTT Blood Glucose 180 minutes ([4]; Compound I 1 mpk): 398 ± 30 mg/dL
- Fasting Blood Glucose (0 minute) ([4]; Compound I 3 mpk): 202 ± 10 mg/dL
- OGTT Area Under Curve (AUC) ([4]; Compound I 3 mpk): 77402 ± 3526
- OGTT Blood Glucose 120 minutes ([4]; Compound I 3 mpk): 424 ± 19 mg/dL
- OGTT Blood Glucose 180 minutes ([4]; Compound I 3 mpk): 355 ± 24 mg/dL
- Fasting Blood Glucose (0 minute) ([4]; Compound I 10 mpk): 194 ± 9 mg/dL
- OGTT Area Under Curve (AUC) ([4]; Compound I 10 mpk): 77090 ± 1817
- OGTT Blood Glucose 120 minutes ([4]; Compound I 10 mpk): 421 ± 11 mg/dL
- OGTT Blood Glucose 180 minutes ([4]; Compound I 10 mpk): 385 ± 14 mg/dL
